{"source": "patent EP1674466A1", "about": "“2,5- and 2,6-disubstituted benzazole analogues useful as protein kinase inhibitors” (4SC AG, priority 2004, dated 2006)", "target": "at least one kinase selected from Aurora A, Aurora B, EGF-R, ERBB2, PDGFR, IGF1-R, VEGF-R2, VEGF-R3, EPHB4, Tie2, and SRC", "experiment": "33PanQinase Activity Assay (protein kinase assay)", "type": "biochemical", "details": "on at least one kinase of the listed panel, or on at least two kinases from at least two different molecular mechanisms of tumor progression; recombinant human kinases, 1 µM ATP", "procedure": "The effect of the benzazole derivatives was tested on recombinant, human protein kinases. All protein kinases were expressed in Sf9 insect cells as human recombinant GST-fusion proteins or as His-tagged proteins by means of the baculovirus expression system. Protein kinases were purified by affinity chromatography using either GSH-agarose or Ni-NTH-agarose. The purity and identity of each was checked by SDS-PAGE/silver staining and by western blot analysis with specific antibodies. A proprietary protein kinase assay (^33PanQinase® Activity Assay) was used for measuring the kinase activity. All kinase assays were performed in 96-well FlashPlates™ in a 50 µl reaction volume. The assay for all enzymes contained 60 mM HEPES-NaOH, pH 7.5, 3 mM MgCl2, 3 mM MnCl2, 3 µM Na-orthovanadate, 1.2 mM DTT, 50 µg/ml PEG20000 and 1 µM [γ-^33P]-ATP (approx. 5x10^5 cpm per well). The reaction cocktails were incubated at 30°C for 80 minutes. The reaction was stopped with 50 µl of 2% (v/v) H3PO4, plates were aspirated and washed two times with 200 µl of 0.9% (w/v) NaCl. Incorporation of ^33Pi was determined with a microplate scintillation counter. All assays were performed with a BeckmanCoulter/ Sagian robotic system.", "data": [{"smiles": "O=C(Nc1nc2cc(Nc3ncnc4nc[nH]c34)ccc2s1)c1ccccc1", "note": "[Example 11, N-[5-(Purin-6-ylamino)benzothiazol-2-yl]benzamide]", "values": [{"measurement": "IC50", "result": "< 500", "unit": "nM"}]}, {"smiles": "COc1cc2ncnc(Nc3ccc4nc(NC(=O)c5ccccc5)sc4c3)c2cc1OC", "note": "[Example 2, N-[6-(6,7-Dimethoxyquinazolin-4-ylamino)benzothiazol-2-yl]benzamide]", "values": [{"measurement": "IC50", "result": "< 500", "unit": "nM"}]}, {"smiles": "Cc1cc(Nc2ccnc(Nc3ccc4nc(NC(=O)c5ccccc5)sc4c3)n2)n[nH]1", "note": "[Example 9, N-{6-[4-(5-Methylpyrazol-3-ylamino)pyrimidin-2-ylamino]benzothiazol-2-yl}benzamide]", "values": [{"measurement": "IC50", "result": "< 500", "unit": "nM"}]}, {"smiles": "COc1cc2c(Nc3ccc4nc(NC(=O)c5ccccc5)sc4c3)ncnc2cc1OCCCN1CCN(C)CC1", "note": "[Example 5, N-(6-{6-Methoxy-7-[3-(4-methylpiperazin-1-yl)propoxy]quinazolin-4-yl-amino}benzothiazol-2-yl)benzamide]", "values": [{"measurement": "IC50", "result": "< 500", "unit": "nM"}]}, {"smiles": "COc1cc2ncnc(Nc3ccc4nc(NC(=O)c5ccccc5)oc4c3)c2cc1OC", "note": "[Example 1, N-[6-(6,7-Dimethoxyquinazolin-4-ylamino)benzoxazol-2-yl]benzamide]", "values": [{"measurement": "IC50", "result": "< 500", "unit": "nM"}]}]}
